Values joined by “and” are separate entries in the source; they are usually repeats but may differ in a detail not shown here. Identical values can stand only once. Inconclusive results and toxic doses are left out. Cut-off read from the data, not from the text of the source: active = T/C of 150% or more; inactive = T/C below 125%.
Test system: L1210 leukemia ip in BDF1 mice, survival T/C
Experiment: NCI In Vivo Anticancer Drug Screen. Data for tumor model L1210 Leukemia (intraperitoneal) in B6D2F1 (BDF1) mice
Conditions: endpoint: mean survival time, higher = longer survival
Outline: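 Value reflects the ratio of survival in compound-treated mice to survival in vehicle-treated controls, with both groups carrying the same transplanted tumor.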

[1] = dose: 6.25 mg/kg/injection, schedule: Q01DX009 (ip), vehicle: saline with Tween-80
[2] = dose: 200.0 mg/kg/injection, schedule: Q04DX002 (ip), vehicle: Klucel (hydroxypropylcellulose) (HPC)

Measured: T/C

O=C(O)c1cccc(N=Cc2ccc3c(c2)CCC3)c1
inactive: dose: 100.0 mg/kg/injection, schedule: Q04DX003 (ip), vehicle: Klucel (hydroxypropylcellulose) (HPC) 94 % of control | dose: 200.0 mg/kg/injection, schedule: Q04DX003 (ip), vehicle: Klucel (hydroxypropylcellulose) (HPC) 94 % of control | dose: 400.0 mg/kg/injection, schedule: Q04DX003 (ip), vehicle: Klucel (hydroxypropylcellulose) (HPC) 95 % of control

NC(=O)C1C(=O)c2cccc3c2C1CCCC3 (centres undefined)
inactive: dose: 100.0 mg/kg/injection, schedule: Q01DX001 (ip), vehicle: carboxymethylcellulose (CMC) 90 % of control | dose: 200.0 mg/kg/injection, schedule: Q01DX001 (ip), vehicle: carboxymethylcellulose (CMC) 95 % of control | dose: 400.0 mg/kg/injection, schedule: Q01DX001 (ip), vehicle: carboxymethylcellulose (CMC) 92 % of control

O=C(O)c1cc(N2C(=O)C=CC2=O)cc(N2C(=O)C=CC2=O)c1
inactive: dose: 11.1 mg/kg/injection, schedule: Q01DX Z (ip), vehicle: methylcellulose (MC) 102 % of control | dose: 16.6 mg/kg/injection, schedule: Q01DX Z (ip), vehicle: methylcellulose (MC) 102 % of control | dose: 25.0 mg/kg/injection, schedule: Q01DX Z (ip), vehicle: methylcellulose (MC) 94 % of control

CC(C)(C)N(Cl)C#N
inactive: dose: 100.0 mg/kg/injection, schedule: Q04DX002 (ip), vehicle: saline with Tween-80 93 % of control | dose: 200.0 mg/kg/injection, schedule: Q04DX002 (ip), vehicle: saline with Tween-80 97 % of control | dose: 400.0 mg/kg/injection, schedule: Q04DX002 (ip), vehicle: saline with Tween-80 97 % of control

CC1(C)N=C(N)N=C(N)N1c1cccc(Cl)c1
inactive: dose: 1.15 mg/kg/injection, schedule: Q01DX Z (ip), vehicle: carboxymethylcellulose (CMC) 98 % of control | dose: 2.3 mg/kg/injection, schedule: Q01DX Z (ip), vehicle: carboxymethylcellulose (CMC) 97 % of control | dose: 2.5 mg/kg/injection, schedule: Q01DX015 (ip), vehicle: saline 111 % of control | dose: 4.6 mg/kg/injection, schedule: Q01DX Z (ip), vehicle: carboxymethylcellulose (CMC) 117 % of control | dose: 5.0 mg/kg/injection, schedule: Q01DX015 (ip), vehicle: saline 114 % of control | dose: 9.2 mg/kg/injection, schedule: Q01DX Z (ip), vehicle: carboxymethylcellulose (CMC) 108 % of control | dose: 10.0 mg/kg/injection, schedule: Q01DX015 (ip), vehicle: saline 119 % of control | dose: 40.0 mg/kg/injection, schedule: Q01DX015 (ip), vehicle: saline 114 % of control | dose: 75.0 mg/kg/injection, schedule: Q01DX001 (ip), vehicle: acetone 111 % of control

CC(=O)NC(CCSCc1c2ccccc2c(C)c2c1ccc1ccccc12)C(=O)O (centres undefined)
inactive: dose: 200.0 mg/kg/injection, schedule: Q01DX009 (ip), vehicle: saline with Tween-80 92 % of control | dose: 400.0 mg/kg/injection, schedule: Q01DX009 (ip), vehicle: saline with Tween-80 90 % of control

CC(=O)OCCSCCc1ccccc1
inactive: dose: 62.5 mg/kg/injection, schedule: Q01DX009 (ip), vehicle: saline with Tween-80 97 % of control | dose: 125.0 mg/kg/injection, schedule: Q01DX009 (ip), vehicle: saline with Tween-80 113 % of control | dose: 250.0 mg/kg/injection, schedule: Q01DX009 (ip), vehicle: saline with Tween-80 94 % of control

O=C(Nc1ccc(F)cc1)Oc1ccc([N+](=O)[O-])cc1
inactive: dose: 25.0 mg/kg/injection, schedule: Q01DX009 (ip), vehicle: saline 106 % of control | dose: 50.0 mg/kg/injection, schedule: Q01DX009 (ip), vehicle: saline 100 % of control | dose: 100.0 mg/kg/injection, schedule: Q01DX009 (ip), vehicle: saline 97 % of control and 106 % of control | dose: 200.0 mg/kg/injection, schedule: Q01DX009 (ip), vehicle: saline 95 % of control | dose: 400.0 mg/kg/injection, schedule: Q01DX009 (ip), vehicle: saline 97 % of control

NC(CC(=O)NCC(=O)O)C(=O)O (centres undefined)
inactive: dose: 12.5 mg/kg/injection, schedule: Q04DX002 (ip), vehicle: Klucel (hydroxypropylcellulose) (HPC) 105 % of control | dose: 25.0 mg/kg/injection, schedule: Q04DX002 (ip), vehicle: Klucel (hydroxypropylcellulose) (HPC) 98 % of control | dose: 50.0 mg/kg/injection, schedule: Q04DX002 (ip), vehicle: Klucel (hydroxypropylcellulose) (HPC) 94 % of control

CCSC1=C(SCC)C(=O)C(SCC)=C(SCC)C1=O
inactive: dose: 3.1 mg/kg/injection, schedule: Q01DX009 (ip), vehicle: saline with Tween-80 110 % of control | [1] 105 % of control | dose: 12.5 mg/kg/injection, schedule: Q01DX009 (ip), vehicle: saline with Tween-80 105 % of control | dose: 25.0 mg/kg/injection, schedule: Q01DX009 (ip), vehicle: saline with Tween-80 91 % of control | dose: 50.0 mg/kg/injection, schedule: Q01DX009 (ip), vehicle: saline with Tween-80 103 % of control

CCCCCCCCCCCC(=O)Nc1ccc(S(=O)(=O)NNc2ccccc2)cc1[N+](=O)[O-]
inactive: dose: 100.0 mg/kg/injection, schedule: Q01DX009 (ip), vehicle: Klucel (hydroxypropylcellulose) (HPC) 95 % of control | dose: 100.0 mg/kg/injection, schedule: Q04DX003 (ip), vehicle: alcohol 94 % of control | dose: 200.0 mg/kg/injection, schedule: Q04DX003 (ip), vehicle: alcohol 95 % of control | dose: 400.0 mg/kg/injection, schedule: Q04DX003 (ip), vehicle: alcohol 90 % of control

CCc1ccc(C(=O)O)oc1=O
inactive: dose: 75.0 mg/kg/injection, schedule: Q01DX001 (ip), vehicle: saline 89 % of control | dose: 150.0 mg/kg/injection, schedule: Q01DX001 (ip), vehicle: saline 92 % of control

COc1nc(N)c(C(N)=O)cc1C#N
inactive: dose: 87.0 mg/kg/injection, schedule: Q04DX003 (ip), vehicle: Klucel (hydroxypropylcellulose) (HPC) 97 % of control

CC1CCC(C(=O)O)ON1 (centres undefined)
inactive: dose: 100.0 mg/kg/injection, schedule: Q04DX002 (ip), vehicle: saline 114 % of control | dose: 200.0 mg/kg/injection, schedule: Q04DX002 (ip), vehicle: saline 95 % of control | dose: 400.0 mg/kg/injection, schedule: Q04DX002 (ip), vehicle: saline 100 % of control

O=S(=O)(c1ccccc1)N1CN2CN(C1)CN(S(=O)(=O)c1ccccc1)C2
inactive: dose: 100.0 mg/kg/injection, schedule: Q04DX002 (ip), vehicle: Klucel (hydroxypropylcellulose) (HPC) 103 % of control | [2] 106 % of control | dose: 400.0 mg/kg/injection, schedule: Q04DX002 (ip), vehicle: Klucel (hydroxypropylcellulose) (HPC) 89 % of control

C=C(S(=O)(=O)c1ccccc1)S(=O)(=O)c1ccccc1 (tested in a mixture with another compound)
inactive: dose: 10.0 mg/kg/injection, schedule: Q04DX002 (ip), vehicle: Klucel (hydroxypropylcellulose) (HPC) 117 % of control | dose: 20.0 mg/kg/injection, schedule: Q04DX002 (ip), vehicle: Klucel (hydroxypropylcellulose) (HPC) 102 % of control | dose: 40.0 mg/kg/injection, schedule: Q04DX002 (ip), vehicle: Klucel (hydroxypropylcellulose) (HPC) 91 % of control | [2] 86 % of control

CC(C)(SCCc1ccc([N+](=O)[O-])cc1)C(N)C(=O)O (centres undefined)
inactive: dose: 12.0 mg/kg/injection, schedule: Q01DX009 (ip), vehicle: Klucel (hydroxypropylcellulose) (HPC) 93 % of control | dose: 12.5 mg/kg/injection, schedule: Q04DX003 (ip), vehicle: Klucel (hydroxypropylcellulose) (HPC) 91 % of control | dose: 25.0 mg/kg/injection, schedule: Q01DX009 (ip), vehicle: Klucel (hydroxypropylcellulose) (HPC) 104 % of control | dose: 25.0 mg/kg/injection, schedule: Q04DX003 (ip), vehicle: Klucel (hydroxypropylcellulose) (HPC) 91 % of control | dose: 50.0 mg/kg/injection, schedule: Q01DX009 (ip), vehicle: Klucel (hydroxypropylcellulose) (HPC) 103 % of control | dose: 50.0 mg/kg/injection, schedule: Q04DX003 (ip), vehicle: Klucel (hydroxypropylcellulose) (HPC) 93 % of control

Cc1ccc([I+]c2ccc(C)cc2C)c(C)c1
inactive: dose: 0.25 mg/kg/injection, schedule: Q01DX015 (ip), vehicle: saline 96 % of control | dose: 0.5 mg/kg/injection, schedule: Q01DX015 (ip), vehicle: saline 96 % of control | dose: 1.0 mg/kg/injection, schedule: Q01DX015 (ip), vehicle: saline 97 % of control | dose: 1.56 mg/kg/injection, schedule: Q01DX009 (ip), vehicle: saline with Tween-80 112 % of control | dose: 1.56 mg/kg/injection, schedule: Q04DX003 (ip), vehicle: saline 95 % of control | dose: 2.0 mg/kg/injection, schedule: Q01DX015 (ip), vehicle: saline 97 % of control | dose: 3.12 mg/kg/injection, schedule: Q01DX009 (ip), vehicle: saline with Tween-80 119 % of control | dose: 3.12 mg/kg/injection, schedule: Q04DX003 (ip), vehicle: saline 91 % of control | [1] 110 % of control | dose: 6.25 mg/kg/injection, schedule: Q04DX003 (ip), vehicle: saline 95 % of control | dose: 12.5 mg/kg/injection, schedule: Q01DX001 (ip), vehicle: saline 94 % of control | dose: 25.0 mg/kg/injection, schedule: Q01DX001 (ip), vehicle: saline 100 % of control
